The results in this text go back to patent publication US8703805B2 (Exelixis Patent Company LLC, priority 2005, dated 2014).

Where only a bound is given, the exact number is not on record here.

This assay relates to LXRα and/or LXRβ. As to the kind of experiment: LXR/LXRE co-transfection assay (luciferase reporter, CV-1 cells). It is filed as cell-based, human. The following applies: IC50 or EC50 for LXR (LXRα and/or LXRβ, not distinguished), tested as described in Example 109, CV-1 cells. The gist of the method: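 Transient co-transfection of CV-1 cells with full-length human LXRα or LXRβ plus RXRα expression plasmids and an LXREx1-Tk-luciferase reporter; compounds (10 μM screen, ≤1% DMSO) incubated 20 h at 37 °C. Luminescence read after lysis; EC50/IC50 from 8-point half-log curves, efficacy relative to a high control or DMSO.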
(In general: Reporter assays use an easily measured gene product as a stand-in for the process of interest.)
As a reminder, the EC50 is the concentration giving half of the maximal effect. Higher therefore signals lower potency in that assay. `CC(C)(O)c1nn(-c2c(Cl)cccc2Cl)c(-c2ccc(-c3cccc(S(C)(=O)=O)c3)cc2Cl)c1Cl` [Example 144, 2-(4-chloro-5-(3-chloro-3′-(methylsulfonyl)biphenyl-4-yl)-1-(2,6-dichlorophenyl)-1H-pyrazol-3-yl)propan-2-ol] registered an EC50 of less than 1000 nM.

In turn, `CC(C)(O)c1cc(-c2ccc(-c3cccc(S(C)(=O)=O)c3)s2)n(-c2cccc(F)c2)n1` [Example 1258, 2-[1-(3-fluorophenyl)-5-{5-[3-(methylsulfonyl)phenyl]-2-thienyl}-1H-pyrazol-3-yl]propan-2-ol] gave an EC50 of 1000 to 10000 nM. With `C=C(C)c1cc(-c2ccc(-c3cccc(S(C)(=O)=O)c3)s2)n(-c2ccccc2Cl)n1` [Example 123, 1-(2-chlorophenyl)-5-(5-(3-(methylsulfonyl)phenyl)thiophen-2-yl)-3-(prop-1-en-2-yl)-1H-pyrazole] the figure was less than 1000 nM. With `CN(CC(=O)O)C(=O)c1cc(-c2ccc(-c3cccc(S(C)(=O)=O)c3)s2)n(-c2ccccc2Cl)n1` [Example 1154, N-{[1-(2-chlorophenyl)-5-{5-[3-(methylsulfonyl)phenyl]-2-thienyl}-1H-pyrazol-3-yl]carbonyl}-N-methylglycine] the figure was 1000 to 10000 nM; with `CC(C)(O)c1cc(-c2ccc(-c3cccc(S(C)(=O)=O)c3)s2)n(-c2cc(Cl)ccc2Cl)n1` [Example 1279, 2-[1-(2,5-dichlorophenyl)-5-{5-[3-(methylsulfonyl)phenyl]-2-thienyl}-1H-pyrazol-3-yl]propan-2-ol], 1000 to 10000 nM; with `CON(C)C(=O)c1cc(-c2ccc(-c3cccc(S(C)(=O)=O)c3)s2)n(-c2ncccc2C(F)(F)F)n1` [Example 1237, N-methyl-N-(methyloxy)-5-{5-[3-(methylsulfonyl)phenyl]-2-thienyl}-1-[3-(trifluoromethyl)pyridin-2-yl]-1H-pyrazole-3-carboxamide], 1000 to 10000 nM.

Molecule `CS(=O)(=O)c1cc(-c2ccc(-c3cc(C(F)(F)F)nn3-c3cc(Cl)ccc3Cl)s2)ccc1OCCN1CCOCC1` [Example 1259, 4-(2-{[4-{5-[1-(2,5-dichlorophenyl)-3-(trifluoromethyl)-1H-pyrazol-5-yl]-2-thienyl}-2-(methylsulfonyl)phenyl]oxy}ethyl)morpholine] gave a concentration giving a half-maximal response (EC50) of 1000 to 10000 nM. `CC(=O)c1cc(-c2ccc(-c3cccc(S(C)(=O)=O)c3)s2)n(-c2ccccc2)n1` [Example 1268, 1-(5-{5-[3-(methylsulfonyl)phenyl]-2-thienyl}-1-phenyl-1H-pyrazol-3-yl)ethanone]: the EC50 was less than 1000 nM. With `CS(=O)(=O)CCN1CCN(C(=O)c2ccc(-c3cc(C(F)(F)F)nn3-c3ccccc3Cl)cc2)CC1` [Example 1365, 1-({4-[1-(2-chlorophenyl)-3-(trifluoromethyl)-1H-pyrazol-5-yl]phenyl}carbonyl)-4-[2-(methylsulfonyl)ethyl]piperazine], the EC50 fell in the range of 1000 to 10000 nM. The value for `CS(=O)(=O)c1cccc(-c2ccc(-c3cc(C(O)C(F)(F)F)nn3-c3ccccc3Cl)s2)c1` (stereo not shown) [Example 1209, 1-[1-(2-chlorophenyl)-5-{5-[3-(methylsulfonyl)phenyl]-2-thienyl}-1H-pyrazol-3-yl]-2,2,2-trifluoroethanol] was less than 1000 nM. For `CC(C)(O)c1cc(-c2ccc(-c3cccc(S(C)(=O)=O)c3)cc2)n(-c2ccccc2Cl)n1` [Example 1219, 2-{1-(2-chlorophenyl)-5-[3′-(methylsulfonyl)biphenyl-4-yl]-1H-pyrazole-3-yl}propan-2-ol], the concentration for a half-maximal effect (EC50) was less than 1000 nM. The value for `COC(C)(C)c1cc(-c2ccc(-c3cccc(S(C)(=O)=O)c3)s2)n(-c2ccccc2C(F)(F)F)n1` [Example 1189, 3-[1-methyl-1-(methyloxy)ethyl]-5-{5-[3-(methylsulfonyl)phenyl]-2-thienyl}-1-[2-(trifluoromethyl)phenyl]-1H-pyrazole] was less than 1000 nM; that for `CS(=O)(=O)c1cccc(-c2ccc(-c3cc(C4(C#N)CCCC4)nn3-c3ccccc3Cl)s2)c1` [Example 1191, 1-[1-(2-chlorophenyl)-5-{5-[3-(methylsulfonyl)phenyl]-2-thienyl}-1H-pyrazol-3-yl]cyclopentanecarbonitrile] was less than 1000 nM; that for `CC(C)(O)c1cc(-c2ccc(-c3cccc(S(C)(=O)=O)c3)s2)n(-c2ccncc2)n1` [Example 1343, 2-(5-{5-[3-(methylsulfonyl)phenyl]-2-thienyl}-1-pyridin-4-yl-1H-pyrazol-3-yl)propan-2-ol] was 1000 to 10000 nM. The value for `CS(=O)(=O)c1cccc(-c2ccc(-c3cc(C(O)(C(F)(F)F)C(F)(F)F)nn3-c3ccccc3Cl)s2)c1` [Example 1164, 2-[1-(2-chlorophenyl)-5-{5-[3-(methylsulfonyl)phenyl]-2-thienyl}-1H-pyrazol-3-yl]-1,1,1,3,3,3-hexafluoropropan-2-ol] was less than 1000 nM; that for `CC(C)(O)c1nn(-c2cnccc2C(F)(F)F)c(-c2ccc(-c3cccc(S(C)(=O)=O)c3)s2)c1Br` [Example 1369, 2-(4-bromo-5-{5-[3-(methylsulfonyl)phenyl]-2-thienyl}-1-[4-(trifluoromethyl)pyridin-3-yl]-1H-pyrazol-3-yl)propan-2-ol] was less than 1000 nM; that for `CC(C)(O)c1cc(-c2ccccc2Cl)n(-c2ccc(-c3cccc(S(C)(=O)=O)c3)cc2Cl)n1` [Example 114, 2-(1-(3-chloro-3′-(methylsulfonyl)biphenyl-4-yl)-5-(2-chlorophenyl)-1H-pyrazol-3-yl)propan-2-ol] was less than 1000 nM. With `CC(C)(O)c1cccc(-c2ccc(-c3cc(C(C)(C)O)nn3-c3ccccc3Cl)cc2)c1` [Example 1307, 2-{1-(2-chlorophenyl)-5-[3′-(1-hydroxy-1-methylethyl)biphenyl-4-yl]-1H-pyrazol-3-yl}propan-2-ol] the figure was less than 1000 nM; with `CS(=O)(=O)c1cccc(Oc2ccc(-c3cc(C(F)(F)F)nn3-c3ccccc3Cl)cc2)c1` [Example 68, 1-(2-chlorophenyl)-5-(4-{[3-(methylsulfonyl)phenyl]oxy}phenyl)-3-(trifluoromethyl)-1H-pyrazole], less than 1000 nM. Molecule `CC(C)(O)c1nn(-c2ccccc2Br)c(-c2ccc(-c3cccc(S(C)(=O)=O)c3)s2)c1Cl` [Example 1368, 2-[1-(2-bromophenyl)-4-chloro-5-{5-[3-(methylsulfonyl)phenyl]-2-thienyl}-1H-pyrazol-3-yl]propan-2-ol] gave an EC50 of less than 1000 nM. With `CS(=O)(=O)c1cccc(-c2ccc(-c3cc(C(=O)NCCN4CCOCC4)nn3-c3ccccc3Cl)s2)c1` [Example 590, 1-(2-chlorophenyl)-5-{5-[3-(methylsulfonyl)phenyl]-2-thienyl}-N-(2-morpholin-4-ylmethyl)-1H-pyrazole-3-carboxamide], the EC50 lay within 1000 to 10000 nM. With `CC(C)(O)c1cc(-c2ccc(-c3cccc(S(C)(=O)=O)c3)s2)n(-c2cccc3c2OC(F)(F)O3)n1` [Example 1342, 2-[1-(2,2-difluoro-1,3-benzodioxol-4-yl)-5-{5-[3-(methylsulfonyl)phenyl]-2-thienyl}-1H-pyrazol-3-yl]propan-2-ol] the figure was less than 1000 nM; with `CC(C)S(=O)(=O)c1cccc(-c2ccc(-c3cc(C(C)(C)O)nn3-c3ncccc3C(F)(F)F)s2)c1` [Example 1184, 2-{5-(5-{3-[(1-methylethyl)sulfonyl]phenyl}-2-thienyl)-1-[3-(trifluoromethyl)pyridin-2-yl]-1H-pyrazol-3-yl}propan-2-ol], 1000 to 10000 nM. With `CN(C)C(C)(C)c1cc(-c2ccc(-c3cccc(S(C)(=O)=O)c3)s2)n(-c2ccccc2Cl)n1` [Example 1172, 2-[1-(2-chlorophenyl)-5-{5-[3-(methylsulfonyl)phenyl]-2-thienyl}-1H-pyrazol-3-yl]-N,N-dimethylpropan-2-amine] the figure was less than 1000 nM; with `CS(=O)(=O)c1cc(-c2ccc(-c3cc(C(F)(F)F)nn3-c3ncccc3C(F)(F)F)s2)ccc1CO` [Example 1149, [2-(methylsulfonyl)-4-(5-{3-(trifluoromethyl)-1-[3-(trifluoromethyl)pyridin-2-yl]-1H-pyrazol-5-yl}-2-thienyl)phenyl]methanol], less than 1000 nM. Consider `CC(C)(O)c1cc(-c2ccc(-c3cccc(S(C)(=O)=O)c3)cc2Cl)n(-c2c(Cl)cccc2Cl)n1` [Example 142, 2-(5-(3-chloro-3′-(methylsulfonyl)biphenyl-4-yl)-1-(2,6-dichlorophenyl)-1H-pyrazol-3-yl)propan-2-ol], for which the EC50 is less than 1000 nM. With `CC(C)(O)c1nn(-c2cnccc2C(F)(F)F)c(-c2ccc(-c3cccc(S(C)(=O)=O)c3)cc2)c1Cl` [Example 109, 2-(4-chloro-5-(3′-(methylsulfonyl)biphenyl-4-yl)-1-(4-(trifluoromethyl)pyridin-3-yl)-1H-pyrazol-3-yl)propan-2-ol] the figure was 1000 to 10000 nM; with `Cc1cc(-c2cccc(S(C)(=O)=O)c2)cc(C)c1-n1nc(C(C)(C)O)cc1-c1ccccc1Cl` [Example 146, 2-(5-(2-chlorophenyl)-1-(3,5-dimethyl-3′-(methylsulfonyl)biphenyl-4-yl)-1H-pyrazol-3-yl)propan-2-ol], less than 1000 nM; with `CC(C)(O)c1cc(-c2ccc(-c3cccc(S(C)(=O)=O)c3)s2)n(-c2cc(Cl)ccc2F)n1` [Example 1336, 2-[1-(5-chloro-2-fluorophenyl)-5-{5-[3-(methylsulfonyl)phenyl]-2-thienyl}-1H-pyrazol-3-yl]propan-2-ol], less than 1000 nM. The value for `CC(O)c1cc(-c2ccc(-c3cccc(S(C)(=O)=O)c3)s2)n(-c2ccccc2Cl)n1` (stereo not shown) [Example 1157, 1-[1-(2-chlorophenyl)-5-{5-[3-(methylsulfonyl)phenyl]-2-thienyl}-1H-pyrazol-3-yl]ethanol] was less than 1000 nM.

In turn, `Cc1ccc(F)cc1-n1nc(C(C)(C)O)cc1-c1ccc(-c2cccc(S(C)(=O)=O)c2)s1` [Example 1331, 2-[1-(5-fluoro-2-methylphenyl)-5-{5-[3-(methylsulfonyl)phenyl]-2-thienyl}-1H-pyrazol-3-yl]propan-2-ol] gave an EC50 of less than 1000 nM.
